# Assays:
# [1] = Solubility / solubilization of Triclosan in water and SDS solutions; format: physicochemical; conditions: SDS alone, no PVP
# Procedure: This concentrate was serially diluted at 3/10, 2.5/10, 2/10, 1.5/10, 1/10, 0.8/10, 0.6/10, 0.4/10 with water. […] Minimum amount of SDS required to solubilize 0.075%-0.09% Triclosan was ˜0.4-0.5% range SDS. This corresponds to about two-three times the CMC for SDS, which was determined to be about 0.17%.
# [2] = cited from earlier work
# [3] = Particle size by Dynamic Light Scattering; format: physicochemical; conditions: active in SDS/PVP K-30 aqueous systems and dilutions
# Excerpt: The hydrophobic material is present in the composition as an emulsion or a dispersion. The particle size of the hydrophobic material in the composition typically falls within the range of from about 5 to 1000 nm, more particularly from about 5 to 500 nm, still more particularly from about 10 to 100 nm and in accordance with certain embodiments from about 10 to 30 nm. Particle size refers to average particle radius and can be determined using dynamic light scattering techniques and equipment known to those of skill in the art. The compositions in accordance with certain aspects of the invention are visually clear due primarily to the small particle size of the hydrophobic material. Optical clarity can be measured using a turbidimeter or nephelometer.
# [4] = Visual clarity of aqueous concentrate and dilutions; format: physicochemical; conditions: for appearance of dilutions with water: dilution ratios as stated in each example; for appearance / dissolution of the aqueous concentrate: undiluted composition as prepared
# Excerpt: FIG. 2 summarizes a method that can be used for optimization. Once the components are identified, optimization may be performed by preparing several mixtures of the components in different ratios and observing the phase behavior. Plot the compositions producing clear systems for concentrate and dilutions and identify regions in the triangular composition space. For a fixed amount of the hydrophobic material or active ingredient, vary the ratios of the surfactant and polymer in water. Alternately, vary the concentration of the hydrophobic material or active ingredient, polymer and surfactant in different ratio and make up to 100% in water and plot the compositions providing clear systems for the concentrate and for dilutions.
# [5] = Critical micelle concentration by surface tension; format: physicochemical; conditions: in water
# Excerpt: Suitable polymer is selected by first determining the surface tension concentration profile of the surfactant and evaluating the CMC. This is done by preparing standard solutions of the surfactant in water at different concentration and dilutions and measuring surface tension of the solutions and plotting the data as shown in FIG. 1. Surface tension may be measured using a typical Tensiometer [DuNuoy Tensiometer, Surface Tensiomat, Fisher with a platinum ring with a mean circumference of 6 cm, and a ring/wire radius ratio of 53.8. As an example: starting with 1% solution of a typical surfactant like SDS, serial dilutions are made by diluting appropriate amounts of the 1% stock solution and diluting to 0.5%, 0.2%, 0.1% and 0.05, 0.02, 0.01, 0.005, 0.002, by adding appropriate amounts of de-ionized water to a weighed quantity of the stock solution. FIG. 1 is a plot of concentration in moles per liter of the SDS and surface tension at 25° C.
compound,measurement,setting,value
Oc1cc(Cl)ccc1Oc1ccc(Cl)cc1Cl [Triclosan],Minimum amount of SDS required to solubilize 0.075%-0.09% Triclosan,[1],0.4-0.5 % SDS
same,Minimum amount of SDS to solubilize 0.3% Triclosan in water,[1],~2 % SDS
same,level of SDS required to solubilize 3% Triclosan,[1],25%
same,solubility in water,[2],10 ppm
same,particle size (radius),[3],10-30 nm
CCOC(=O)c1ccc(O)cc1 [ethylparaben],appearance of dilutions with water,[4],clear solutions
same,appearance / dissolution of the aqueous concentrate,[4],clear solutions
"CCCCCCCCCCCCOS(=O)(=O)[O-].[Na+] [SDS, sodium dodecylsulfate]",CMC,[5],about 0.17%
COC(=O)c1ccc(O)cc1 [methylparaben],appearance of dilutions with water,[4],clear solutions
same,appearance / dissolution of the aqueous concentrate,[4],clear solutions

# Source: patent US20100260691A1, “Aqueous compositions containing a hydrophobic material” (priority 2006, published 2010)
